Test results published in US8895761B2, “4-phenylpyrane-3,5-diones, 4-phenylthiopyrane-3,5-diones and 2-phenylcyclohexane-1,3,5-triones as herbicides” (Syngenta Limited, priority 2007, dated 2014).

What was measured:
Assay type in all cases: in vivo
[1] = tested on: Echinochloa crus-galli (ECHCG); assay: Pre-emergence herbicidal glasshouse test, Echinochloa crus-galli; conditions: Echinochloa crus-galli, 312 h, rate 250 g/ha, evaluated after 13 days, scale 100 = total damage to plant, 0 = no damage
How it was run: (§1)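 Seeds were sown in standard soil in pots and sprayed one day after sowing (pre-emergence) or after 8 days' growth (post-emergence). The spray was an aqueous solution from the active ingredient formulated in acetone/water (50:50) with 0.5% Tween 20. Plants grew at 24/16° C. day/night, 14 h light, 65% humidity, watered twice daily. Damage was scored after 13 days on a scale from 0 (no damage) to total damage.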

[2] = tested on: Setaria faberi (SETFA); assay: Post-emergence herbicidal glasshouse test, Setaria faberi; conditions: Setaria faberi, 312 h, rate 250 g/ha, evaluated after 13 days, scale 100 = total damage to plant, 0 = no damage
Experimental: (§2) Seeds of a variety of test species were sown in standard soil in pots. After cultivation for one day (pre-emergence) or after 8 days cultivation (post-emergence) under controlled conditions in a glasshouse (at 24/16° C., day/night; 14 hours light; 65% humidity), the plants were sprayed with an aqueous spray solution derived from the formulation of the technical active ingredient in acetone/water (50:50) solution containing 0.5% Tween 20 (polyoxyethelyene sorbitan monolaurate, CAS RN 9005-64-5). The test plants were then grown in a glasshouse under controlled conditions in a glasshouse (at 24/16° C., day/night; 14 hours light; 65% humidity) and watered twice daily. After 13 days for pre and post-emergence, the test was evaluated ([…] to plant; 0=no damage to plant).
(§3) Setaria faberi (SETFA), Lolium perenne (LOLPE), Alopecurus myosuroides (ALOMY), Echinochloa crus-galli (ECHCG) and Avena fatua (AVEFA).

[3] = tested on: Alopecurus myosuroides (ALOMY); assay: Post-emergence herbicidal glasshouse test, Alopecurus myosuroides; conditions: Alopecurus myosuroides, 312 h, rate 250 g/ha, evaluated after 13 days, scale 100 = total damage to plant, 0 = no damage
How it was run: as §1

[4] = tested on: Setaria faberi (SETFA); assay: Pre-emergence herbicidal glasshouse test, Setaria faberi; conditions: Setaria faberi, 312 h, rate 250 g/ha, evaluated after 13 days, scale 100 = total damage to plant, 0 = no damage
Experimental: as §2, §3

[5] = tested on: Echinochloa crus-galli (ECHCG); assay: Post-emergence herbicidal glasshouse test, Echinochloa crus-galli; conditions: Echinochloa crus-galli, 312 h, rate 250 g/ha, evaluated after 13 days, scale 100 = total damage to plant, 0 = no damage
How it was run: as §1

[6] = tested on: Avena fatua (AVEFA); assay: Pre-emergence herbicidal glasshouse test, Avena fatua; conditions: Avena fatua, 312 h, rate 250 g/ha, evaluated after 13 days, scale 100 = total damage to plant, 0 = no damage
How it was run: as §1

[7] = tested on: Avena fatua (AVEFA); assay: Post-emergence herbicidal glasshouse test, Avena fatua; conditions: Avena fatua, 312 h, rate 250 g/ha, evaluated after 13 days, scale 100 = total damage to plant, 0 = no damage
How it was run: as §1

[8] = tested on: Alopecurus myosuroides (ALOMY); assay: Pre-emergence herbicidal glasshouse test, Alopecurus myosuroides; conditions: Alopecurus myosuroides, 312 h, rate 250 g/ha, evaluated after 13 days, scale 100 = total damage to plant, 0 = no damage
How it was run: as §1

| Structure (SMILES) | pest or weed control at 250 g/ha [1] [%] | pest or weed control at 250 g/ha [2] [%] | pest or weed control at 250 g/ha [3] [%] | pest or weed control at 250 g/ha [4] [%] | pest or weed control at 250 g/ha [5] [%] | pest or weed control at 250 g/ha [6] [%] | pest or weed control at 250 g/ha [7] [%] | pest or weed control at 250 g/ha [8] [%] |
| --- | --- | --- | --- | --- | --- | --- | --- | --- |
| CCc1cc(-c2ccc(F)cc2)ccc1C1=C(O)[C@@]2(C)CC[C@H](O2)C1=O [Compound A-18] | 100 | 100 | 100 | 100 | 100 | 70 | 90 | 90 |
| CCc1cc(-c2ccc(Cl)c(C)c2)ccc1C1=C(O)[C@@]2(C)CC[C@H](O2)C1=O [Compound A-19] | 80 | 80 | 90 | 0 | 90 | 30 | 60 | 0 |
| CCc1cc(-c2ccc(Cl)c(OC)c2)ccc1C1=C(O)[C@@]2(C)CC[C@H](O2)C1=O [Compound A-20] | 70 | 90 | 90 | 80 | 100 | 40 | 70 | 70 |
| CCc1cc(-c2ccc(Cl)c(C(F)(F)F)c2)ccc1C1=C(O)[C@@]2(C)CC[C@H](O2)C1=O [Compound A-22] | 40 | 100 | 100 | 50 | 90 | 50 | 70 | 0 |
| CCc1cc(-c2ccc(Cl)s2)ccc1C1=C(O)[C@@]2(C)CC[C@H](O2)C1=O [Compound A-23] | 50 | 80 | 90 | 60 | 100 | 40 | 30 | 60 |
| CCc1cc(-c2ccc(Cl)nc2)ccc1C1=C(O)[C@@]2(C)CC[C@H](O2)C1=O [Compound A-25] | 50 | 100 | 90 | 90 | 100 | 20 | 60 | 30 |
| CCOC[C@]12CC[C@H](O1)C(=O)C(c1ccc(-c3ccc(Cl)cc3)cc1CC)=C2O [Compound A-33] | 60 | 100 | 90 | 30 | 100 | 40 | 80 | 20 |
